Reference: US20230167062A1, “AMIDE COMPOUND CONTAINING SUBSTITUTED ACETOPHENONE STRUCTURAL FRAGMENTS AND PREPARATION METHOD AND APPLICATION THEREOF” (SHENYANG SINOCHEM AGROCHEMICALS R&D CO., LTD., priority 2019, published 2023)

Key:
cucumber downy mildew = assay: In vivo protection activity against cucumber downy mildew (live pot determination); conditions: for control effects, Cucumber downy mildew: 400 ppm (Table 2); for control effects on cucumber downy mildew: dose of 400 ppm, spray, inoculated after 24 hours
Procedure: (§1) The test of in vivo protection effect is conducted on various fungal diseases of plants through samples of the compounds of the present invention. The determination results of the fungal activity are shown in the following embodiments.
(§2) The determination method is as follows: the to-be-determined sample of the compound of general formula I obtained above was dissolved with a small amount of solvent (the type of the solvent is, for example, acetone, methanol, DMF, etc., and is selected according to the dissolving ability to the sample; and the volume ratio of the solvent amount to the liquid spray amount is equal to or less than 0.05) by a live pot determination method, and diluted with water containing 0.1% Tween 80 to prepare to-be-determined liquid with required concentration. On a crop sprayer, the to-be-determined liquid was sprayed onto disease host plants (the host plants are standard potted seedlings cultivated in a greenhouse), and the disease was inoculated after 24 hours. According to the characteristics of the disease, the diseased plants that need to be cultivated under temperature control and moisturizing were inoculated and then placed in an artificial climate chamber for cultivation. […] After full onset through control (usually one week), the disease prevention effect of the compound was evaluated.

wheat powdery mildew = assay: In vivo protection activity against wheat powdery mildew (live pot determination); conditions: for control effects on wheat powdery mildew: dose of 400 ppm
Procedure: as §1, §2

corn rust = assay: In vivo protection activity against corn rust (live pot determination); conditions: for control effects, Corn rust: 400 ppm (Table 4); for control effects on corn rust: dose of 400 ppm
Procedure: as §1, §2

cucumber anthracnose = assay: In vivo protection activity against cucumber anthracnose (live pot determination); conditions: dose of 400 ppm
Procedure: as §1, §2

cucumber botrytis = assay: In vivo protection activity against cucumber botrytis (live pot determination); conditions: 200 ppm
Procedure: as §1, §2

tomato botrytis = assay: In vivo protection activity against tomato botrytis (live pot determination)
Procedure: as §1, §2

Compound	control effects, Cucumber downy mildew (cucumber downy mildew)	control effects on cucumber downy mildew (cucumber downy mildew) [%]	control effects, Wheat powdery mildew (wheat powdery mildew; 400 ppm (Table 3))	control effects on wheat powdery mildew (wheat powdery mildew) [%]	control effects, Corn rust (corn rust)	control effects on corn rust (corn rust) [%]	control effects on cucumber anthracnose (cucumber anthracnose) [%]	Control effects on cucumber botrytis (%) (cucumber botrytis)	Control effects on tomato botrytis (%) (tomato botrytis; 25 ppm)	Control effects on tomato botrytis (%) (tomato botrytis; 100 ppm)	control effects, Wheat powdery mildew (wheat powdery mildew; 100 ppm (Table 3))	melting point [°C]
Cc1cc(OC(C)C)ccc1C(=O)C(C)(C)NC(=O)c1cn(C)nc1C(F)(F)F [CK3]	0	0	85	85	0	0	0	60	20	35		
Cc1cc(OC(C)C)ccc1C(=O)C(C)(C)NC(=O)c1c(C(F)(F)F)nn(C)c1Cl [CK4]	0	0	75	75	0	0	0	25	0	0		
Cc1cc(OC(C)C)ccc1C(=O)C(C)(C)NC(=O)c1cccnc1Cl [CK2]	0	0	85	85	0	0	0	0	0	20		
Cc1cc(OC(C)C)ccc1C(=O)C(C)(C)NC(=O)c1cccnc1C(F)(F)F [CK1]	0	0	85	85	0	0	0	0				
Cc1cc(OC(C)C)ccc1C(=O)C(C)(C)NC(=O)c1cccnc1C(F)F [Compound I-2]	40		100								100	96.9
